Seven compounds from BindingDB's records for doi:10.1021/jm501892g (Ensemble Therapeutics, 2015) can be followed below.

The target of assay [1] is Baculoviral IAP repeat-containing protein 2 (cIAP1, BIRC2, Homo sapiens) (UniProt Q13490). The assay is described as follows: Inhibition of cIAP1 BIR3 (154 to 352 residues) (unknown origin) by fluoresceinated dimeric SMAC peptide based fluorescence polarization assay.
Assay [2] deals with E3 ubiquitin-protein ligase XIAP (BIRC4, Homo sapiens) (UniProt P98170). Briefly: Inhibition of XIAP BIR2-3 (125 to 356 residues) C202A/C213G mutant (unknown origin) fluoresceinated dimeric SMAC peptide based fluorescence polarization assay.
Chain of E3 ubiquitin-protein ligase XIAP (BIRC4, Homo sapiens) (P98170 whole entry, looked up, the tested form may be a part): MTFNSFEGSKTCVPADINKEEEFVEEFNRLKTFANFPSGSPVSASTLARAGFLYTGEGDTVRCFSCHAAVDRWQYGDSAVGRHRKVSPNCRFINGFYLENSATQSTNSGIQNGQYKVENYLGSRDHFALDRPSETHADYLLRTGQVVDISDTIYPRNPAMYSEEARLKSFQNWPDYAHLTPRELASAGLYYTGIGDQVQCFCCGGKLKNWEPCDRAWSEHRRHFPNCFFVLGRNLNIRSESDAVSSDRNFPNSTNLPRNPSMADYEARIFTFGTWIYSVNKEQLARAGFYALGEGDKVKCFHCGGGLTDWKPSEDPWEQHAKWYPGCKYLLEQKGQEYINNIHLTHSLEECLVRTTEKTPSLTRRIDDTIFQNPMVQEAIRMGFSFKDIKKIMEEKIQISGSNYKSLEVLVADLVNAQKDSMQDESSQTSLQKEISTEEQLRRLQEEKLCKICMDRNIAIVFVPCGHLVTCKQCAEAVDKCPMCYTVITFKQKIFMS

Chain of Baculoviral IAP repeat-containing protein 2 (cIAP1, BIRC2, Homo sapiens) (Q13490 whole entry, looked up, the tested form may be a part): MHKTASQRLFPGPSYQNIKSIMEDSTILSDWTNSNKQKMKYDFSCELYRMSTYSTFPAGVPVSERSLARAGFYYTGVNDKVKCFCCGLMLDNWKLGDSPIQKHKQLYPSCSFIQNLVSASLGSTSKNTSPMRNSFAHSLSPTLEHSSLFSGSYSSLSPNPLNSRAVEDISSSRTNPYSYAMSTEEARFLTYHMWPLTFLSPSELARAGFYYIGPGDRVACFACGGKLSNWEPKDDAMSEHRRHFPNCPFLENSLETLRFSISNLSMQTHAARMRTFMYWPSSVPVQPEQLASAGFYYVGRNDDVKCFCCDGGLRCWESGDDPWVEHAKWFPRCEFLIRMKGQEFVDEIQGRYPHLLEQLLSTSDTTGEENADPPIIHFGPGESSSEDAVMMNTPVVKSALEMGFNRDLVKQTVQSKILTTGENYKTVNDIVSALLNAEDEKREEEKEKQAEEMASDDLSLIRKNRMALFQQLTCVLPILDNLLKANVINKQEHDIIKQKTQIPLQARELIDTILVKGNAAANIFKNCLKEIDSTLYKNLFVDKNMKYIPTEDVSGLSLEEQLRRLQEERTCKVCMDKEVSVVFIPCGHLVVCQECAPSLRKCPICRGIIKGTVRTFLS

`CN[C@@H](C)C(=O)N[C@H](C(=O)N1C[C@@H]2C[C@H]1C(=O)N[C@@H](Cc1ccccc1)C(=O)N[C@H](C(=O)O)Cc1ccc(cc1)NC(=O)CCc1cn2nn1)C(C)C`: a half-maximal response in assay [1] (EC50) required 36 nM. The compound `CN[C@@H](C)C(=O)N[C@H](C(=O)N1C[C@@H]2C[C@H]1C(=O)N[C@@H](Cc1ccc3ccccc3c1)C(=O)N[C@H](C(=O)O)Cc1ccc(cc1)OCc1cn(nn1)[C@H]1C[C@@H](C(=O)N[C@@H](Cc3ccc4ccccc4c3)C(=O)N[C@H](C(=O)O)Cc3ccc(cc3)OCc3cn2nn3)N(C(=O)[C@@H](NC(=O)[C@H](C)NC)C(C)C)C1)C(C)C` showed a half-maximal inhibitory concentration (IC50) in assay [1] of 17 nM.

`CN[C@@H](C)C(=O)N[C@H](C(=O)N1C[C@@H]2C[C@H]1C(=O)N[C@@H](Cc1ccccc1)C(=O)N[C@H](C(=O)O)Cc1ccc(cc1)OCc1cn(nn1)[C@H]1C[C@@H](C(=O)N[C@@H](Cc3ccccc3)C(=O)N[C@H](C(=O)O)Cc3ccc(cc3)OCc3cn2nn3)N(C(=O)[C@@H](NC(=O)[C@H](C)NC)C(C)C)C1)C(C)C` returned an IC50 in assay [1] of 11 nM.

Compound `CN[C@@H](C)C(=O)N[C@H](C(=O)N1C[C@@H]2C[C@H]1C(=O)N[C@@H](Cc1ccccc1)C(=O)N[C@H](C(=O)O)Cc1ccc(cc1)NC(=O)CCc1cn(nn1)[C@H]1C[C@@H](C(=O)N[C@@H](Cc3ccccc3)C(=O)N[C@H](C(=O)O)Cc3ccc(cc3)NC(=O)CCc3cn2nn3)N(C(=O)[C@@H](NC(=O)[C@H](C)NC)C(C)C)C1)C(C)C` returned an IC50 in assay [1] of 8 nM. The compound `CN[C@@H](C)C(=O)N[C@H](C(=O)N1C[C@@H]2C[C@H]1C(=O)N[C@@H](Cc1cccc3ccccc13)C(=O)N[C@H](C(=O)O)Cc1ccc(cc1)OCc1cn(nn1)[C@H]1C[C@@H](C(=O)N[C@@H](Cc3cccc4ccccc34)C(=O)N[C@H](C(=O)O)Cc3ccc(cc3)OCc3cn2nn3)N(C(=O)[C@@H](NC(=O)[C@H](C)NC)C(C)C)C1)C(C)C` had an IC50 in assay [1] of 17 nM. In the case of `CN[C@@H](C)C(=O)N[C@H](C(=O)N1C[C@@H]2C[C@H]1C(=O)N[C@@H](Cc1ccc3ccccc3c1)C(=O)N[C@H](C(=O)O)Cc1cn(nn1)[C@H]1C[C@@H](C(=O)N[C@@H](Cc3ccc4ccccc4c3)C(=O)N[C@H](C(=O)O)Cc3cn2nn3)N(C(=O)[C@@H](NC(=O)[C@H](C)NC)C(C)C)C1)C(C)C`, the figures for the IC50 in assay [2] and in assay [1] were 9 nM and 10 nM, respectively. `CN[C@@H](C)C(=O)N[C@H](C(=O)N1C[C@@H]2C[C@H]1C(=O)N[C@@H](Cc1ccccc1)C(=O)N[C@H](C(=O)O)Cc1ccc(cc1)OCc1cn2nn1)C(C)C`: in assay [1], the EC50 is 20 nM.

Usually EC50 stands for the midpoint of the concentration-response curve. Lower therefore signals a more potent agent. By IC50 is commonly meant the concentration that gives 50% inhibition. A high value points to lower potency.
